Results from PubChem BioAssay AID256 (DTP/NCI, 2004).
Toxic doses and inconclusive results are not listed. Rule for the calls: active = survival T/C of 150% or more; inactive = T/C below 125% in these data.

Test system: CD2F1 mice, L1210 leukemia ip, survival T/C
Experiment: NCI In Vivo Anticancer Drug Screen. Data for tumor model L1210 Leukemia (intraperitoneal) in CD2F1 (CDF1) mice
Conditions: higher = longer survival
Method in brief: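 Activity against a transplanted murine tumor was judged by comparing the compound group with a vehicle group. The outcome in the treated animals was divided by that in the controls.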

[1] = endpoint: mean survival time, dose: 100.0 mg/kg/injection, schedule: Q04DX003 (ip), vehicle: saline with Tween-80

Measured: T/C

CO[C@]12[C@@H](COC(N)=O)C3=C(C(=O)C(C)=C(NCC4CCCO4)C3=O)N1C[C@@H]1[C@H]2N1C (some centres undefined)
inactive: endpoint: mean survival time, dose: 1.5 mg/kg/injection, schedule: Q01DX001 (ip), vehicle: saline with Tween-80 102 % of control | endpoint: mean survival time, dose: 3.0 mg/kg/injection, schedule: Q01DX001 (ip), vehicle: saline with Tween-80 98 % of control | endpoint: mean survival time, dose: 6.0 mg/kg/injection, schedule: Q01DX001 (ip), vehicle: saline with Tween-80 104 % of control | endpoint: mean survival time, dose: 12.0 mg/kg/injection, schedule: Q01DX001 (ip), vehicle: saline with Tween-80 104 % of control | endpoint: mean survival time, dose: 24.0 mg/kg/injection, schedule: Q01DX001 (ip), vehicle: distilled water + Tween-80 114 % of control | endpoint: mean survival time, dose: 24.0 mg/kg/injection, schedule: Q01DX001 (ip), vehicle: saline with Tween-80 116 % of control | endpoint: mean survival time, dose: 25.0 mg/kg/injection, schedule: Q01DX001 (ip), vehicle: distilled water + Tween-80 121 % of control | endpoint: mean survival time, dose: 48.0 mg/kg/injection, schedule: Q01DX001 (ip), vehicle: distilled water + Tween-80 124 % of control | endpoint: mean survival time, dose: 100.0 mg/kg/injection, schedule: Q01DX001 (ip), vehicle: distilled water + Tween-80 113 % of control

CC(C)(CN(Cc1ccccc1)Cc1ccccc1)[N+](=O)[O-]
inactive: endpoint: mean survival time, dose: 50.0 mg/kg/injection, schedule: Q01DX009 (ip), vehicle: saline with Tween-80 98 % of control | endpoint: mean survival time, dose: 100.0 mg/kg/injection, schedule: Q01DX009 (ip), vehicle: saline with Tween-80 98 % of control | endpoint: mean survival time, dose: 200.0 mg/kg/injection, schedule: Q01DX009 (ip), vehicle: saline with Tween-80 90 % of control

O=NN(CCCl)C(=O)Oc1ccc(OC(=O)N(CCCl)N=O)cc1
inactive: endpoint: median survival time, dose: 3.12 mg/kg/injection, schedule: Q01DX009 (ip), vehicle: Klucel (hydroxypropylcellulose) (HPC) 104 % of control | endpoint: median survival time, dose: 6.25 mg/kg/injection, schedule: Q01DX009 (ip), vehicle: Klucel (hydroxypropylcellulose) (HPC) 114 % of control | endpoint: median survival time, dose: 12.5 mg/kg/injection, schedule: Q01DX009 (ip), vehicle: Klucel (hydroxypropylcellulose) (HPC) 118 % of control | endpoint: median survival time, dose: 25.0 mg/kg/injection, schedule: Q01DX009 (ip), vehicle: Klucel (hydroxypropylcellulose) (HPC) 113 % of control | endpoint: median survival time, dose: 50.0 mg/kg/injection, schedule: Q01DX009 (ip), vehicle: Klucel (hydroxypropylcellulose) (HPC) 93 % of control

CCCCCCCCc1ccc(O)c(Cl)c1
inactive: [1] 94 % of control | endpoint: mean survival time, dose: 200.0 mg/kg/injection, schedule: Q04DX003 (ip), vehicle: saline with Tween-80 91 % of control | endpoint: mean survival time, dose: 400.0 mg/kg/injection, schedule: Q04DX003 (ip), vehicle: saline with Tween-80 94 % of control

CC1(C)N=C(N)N=C(N)N1c1cccc(/C=C/C=C/c2cccc([N+](=O)[O-])c2)c1
inactive: endpoint: mean survival time, dose: 25.0 mg/kg/injection, schedule: Q04DX003 (ip), vehicle: saline with Tween-80 95 % of control | endpoint: mean survival time, dose: 50.0 mg/kg/injection, schedule: Q04DX003 (ip), vehicle: saline with Tween-80 91 % of control | [1] 89 % of control

Cc1cn(C2CC(O)C(CO)O2)c(=O)nc1NCCc1c[nH]c2ccccc12 (centres undefined)
inactive: endpoint: median survival time, dose: 12.5 mg/kg/injection, schedule: Q01DX005 (ip), vehicle: distilled water + Tween-80 103 % of control | endpoint: median survival time, dose: 25.0 mg/kg/injection, schedule: Q01DX005 (ip), vehicle: distilled water + Tween-80 103 % of control | endpoint: median survival time, dose: 50.0 mg/kg/injection, schedule: Q01DX005 (ip), vehicle: distilled water + Tween-80 102 % of control | endpoint: median survival time, dose: 100.0 mg/kg/injection, schedule: Q01DX005 (ip), vehicle: distilled water + Tween-80 103 % of control | endpoint: median survival time, dose: 200.0 mg/kg/injection, schedule: Q01DX005 (ip), vehicle: distilled water + Tween-80 102 % of control

CC1(C(=O)c2ccccc2)OC1c1ccccc1 (centres undefined)
inactive: endpoint: mean survival time, dose: 100.0 mg/kg/injection, schedule: Q04DX003 (ip), vehicle: acetone 103 % of control | endpoint: mean survival time, dose: 200.0 mg/kg/injection, schedule: Q04DX003 (ip), vehicle: acetone 103 % of control | endpoint: mean survival time, dose: 400.0 mg/kg/injection, schedule: Q04DX003 (ip), vehicle: acetone 98 % of control

CC(=O)NNC(=O)c1ccccn1
inactive: endpoint: mean survival time, dose: 12.5 mg/kg/injection, schedule: Q01DX009 (ip), vehicle: saline 114 % of control | endpoint: mean survival time, dose: 25.0 mg/kg/injection, schedule: Q01DX009 (ip), vehicle: saline 110 % of control | endpoint: mean survival time, dose: 50.0 mg/kg/injection, schedule: Q01DX009 (ip), vehicle: saline 104 % of control | endpoint: mean survival time, dose: 50.0 mg/kg/injection, schedule: Q#A X018 (ip), vehicle: water 103 % of control | endpoint: mean survival time, dose: 100.0 mg/kg/injection, schedule: Q01DX001 (ip), vehicle: water 101 % of control | endpoint: mean survival time, dose: 100.0 mg/kg/injection, schedule: Q01DX009 (ip), vehicle: saline 104 % of control | endpoint: mean survival time, dose: 100.0 mg/kg/injection, schedule: Q01DX009 (ip), vehicle: water 110 % of control | endpoint: mean survival time, dose: 100.0 mg/kg/injection, schedule: Q01DX009 (sc), vehicle: water 119 % of control | endpoint: mean survival time, dose: 200.0 mg/kg/injection, schedule: Q01DX001 (ip), vehicle: water 109 % of control | endpoint: mean survival time, dose: 200.0 mg/kg/injection, schedule: Q01DX009 (sc), vehicle: water 122 % of control

CC1(C)OC1C(=O)O (centres undefined)
inactive: endpoint: mean survival time, dose: 100.0 mg/kg/injection, schedule: Q04DX003 (ip), vehicle: saline 106 % of control | endpoint: mean survival time, dose: 200.0 mg/kg/injection, schedule: Q04DX003 (ip), vehicle: saline 96 % of control | endpoint: mean survival time, dose: 400.0 mg/kg/injection, schedule: Q04DX003 (ip), vehicle: saline 98 % of control
